Measured values as given in the NIST ThermoML archive (doi:10.1016/j.fluid.2011.06.011).

Assay: xn = mol fraction of the nth substance listed
Conditions: Liquid; for speed of sound: Sing-around technique in a fixed-path interferometer; for mass density: Vibrating tube method

C=CC(C)(O)CCC=C(C)C (stereo not drawn) [3,7-dimethyl-1,6-octadien-3-ol] + CCO
Conditions | mass density, 283.15 K [kg/m3] | mass density, 298.15 K [kg/m3] | speed of sound, 283.15 K [m/s] | speed of sound, 298.15 K [m/s]
101 kPa, x1 = 0.0506 | 809.66 | 797.07 | 1222 | –
101 kPa, x1 = 0.0507 | – | – | – | 1171.7
101 kPa, x1 = 0.1008 | 819.09 | 806.76 | 1245 | 1196.3
101 kPa, x1 = 0.1969 | 833.37 | 821.08 | 1281 | 1229.2
101 kPa, x1 = 0.2895 | 843.35 | 831.1 | – | 1253.6
101 kPa, x1 = 0.2959 | – | – | 1307.6 | –
101 kPa, x1 = 0.3862 | – | 838.62 | 1325.8 | 1271.2
101 kPa, x1 = 0.3957 | 851.69 | – | – | –
101 kPa, x1 = 0.4803 | 856.48 | 844.09 | 1339 | –
101 kPa, x1 = 0.4834 | – | – | – | 1285
101 kPa, x1 = 0.593 | 861.02 | 848.66 | 1350.3 | 1294.7
101 kPa, x1 = 0.6838 | 863.65 | 851.31 | 1355.4 | 1300.7
101 kPa, x1 = 0.7832 | – | – | 1361 | 1306.5
101 kPa, x1 = 0.8438 | 866.82 | 854.5 | – | –
101 kPa, x1 = 0.8941 | 867.74 | 855.41 | 1365.1 | 1310.7
101 kPa, x1 = 0.9286 | 868.3 | 855.96 | 1366.7 | 1312.2
101 kPa, x1 = 1 | 869.39 | 857 | 1370.6 | 1315.1
20000 kPa, x1 = 0.0511 | 824.1 | 812.6 | – | –
20000 kPa, x1 = 0.1003 | 832.7 | 821.5 | – | –
20000 kPa, x1 = 0.1962 | 845.8 | 834.6 | – | –
20000 kPa, x1 = 0.2989 | 856 | 844.8 | – | –
20000 kPa, x1 = 0.3996 | 863 | 851.7 | – | –
20000 kPa, x1 = 0.5015 | 868.2 | 856.9 | – | –
20000 kPa, x1 = 0.5982 | 871.9 | 860.6 | – | –
20000 kPa, x1 = 0.6898 | 874.7 | 863.4 | – | –
20000 kPa, x1 = 0.7929 | 877.2 | 865.8 | – | –
20000 kPa, x1 = 0.8885 | 879.1 | 867.7 | – | –
20000 kPa, x1 = 0.9435 | 880 | 868.6 | – | –
20000 kPa, x1 = 1 | 880.8 | 869.4 | – | –
25000 kPa, x1 = 0.0511 | 827.5 | 816.1 | – | –
25000 kPa, x1 = 0.1003 | 836.1 | 824.9 | – | –
25000 kPa, x1 = 0.1962 | 849 | 837.9 | – | –
25000 kPa, x1 = 0.2989 | 859.1 | 848 | – | –
25000 kPa, x1 = 0.3996 | 866 | 854.8 | – | –
25000 kPa, x1 = 0.5015 | 871.2 | 860 | – | –
25000 kPa, x1 = 0.5982 | 874.9 | 863.6 | – | –
25000 kPa, x1 = 0.6898 | 877.6 | 866.3 | – | –
25000 kPa, x1 = 0.7929 | 880.1 | 868.7 | – | –
25000 kPa, x1 = 0.8885 | 882 | 870.7 | – | –
25000 kPa, x1 = 0.9435 | 882.9 | 871.5 | – | –
25000 kPa, x1 = 1 | 883.7 | 872.3 | – | –
30000 kPa, x1 = 0.0511 | 830.7 | 819.6 | – | –
30000 kPa, x1 = 0.1003 | 839 | 828.2 | – | –
30000 kPa, x1 = 0.1962 | 851.9 | 841.1 | – | –
30000 kPa, x1 = 0.2989 | 861.9 | 851 | – | –
30000 kPa, x1 = 0.3996 | 868.8 | 857.8 | – | –
30000 kPa, x1 = 0.5015 | 873.9 | 863 | – | –
30000 kPa, x1 = 0.5982 | 877.5 | 866.5 | – | –
30000 kPa, x1 = 0.6898 | 880.2 | 869.2 | – | –
30000 kPa, x1 = 0.7929 | 882.7 | 871.6 | – | –
30000 kPa, x1 = 0.8885 | 884.6 | 873.5 | – | –
30000 kPa, x1 = 0.9435 | 885.4 | 874.4 | – | –
30000 kPa, x1 = 1 | 886.1 | 875.2 | – | –
35000 kPa, x1 = 0.0511 | 833.8 | 822.8 | – | –
35000 kPa, x1 = 0.1003 | 842.2 | 831.4 | – | –
35000 kPa, x1 = 0.1962 | 854.9 | 844.1 | – | –
35000 kPa, x1 = 0.2989 | 864.7 | 854 | – | –
35000 kPa, x1 = 0.3996 | 871.5 | 860.7 | – | –
35000 kPa, x1 = 0.5015 | 876.7 | 865.8 | – | –
35000 kPa, x1 = 0.5982 | 880.3 | 869.3 | – | –
35000 kPa, x1 = 0.6898 | 882.9 | 872 | – | –
35000 kPa, x1 = 0.7929 | 885.3 | 874.4 | – | –
35000 kPa, x1 = 0.8885 | 887.2 | 876.3 | – | –
35000 kPa, x1 = 0.9435 | 888.1 | 877.1 | – | –
35000 kPa, x1 = 1 | 888.9 | 877.9 | – | –
40000 kPa, x1 = 0.0511 | 836.8 | 826 | – | –
40000 kPa, x1 = 0.1003 | 845.1 | 834.5 | – | –
40000 kPa, x1 = 0.1962 | 857.6 | 847.1 | – | –
40000 kPa, x1 = 0.2989 | 867.4 | 856.9 | – | –
40000 kPa, x1 = 0.3996 | 874.1 | 863.5 | – | –
40000 kPa, x1 = 0.5015 | 879.3 | 868.6 | – | –
40000 kPa, x1 = 0.5982 | 882.8 | 872.1 | – | –
40000 kPa, x1 = 0.6898 | 885.5 | 874.8 | – | –
40000 kPa, x1 = 0.7929 | 887.9 | 877.1 | – | –
40000 kPa, x1 = 0.8885 | 889.7 | 878.9 | – | –
40000 kPa, x1 = 0.9435 | 890.6 | 879.7 | – | –
40000 kPa, x1 = 1 | 891.4 | 880.6 | – | –
